From US20220162163A1, “ALANINE-BASED MODULATORS OF PROTEOLYSIS AND ASSOCIATED METHODS OF USE” (Arvinas Operations, Inc., priority 2015, published 2022)

Biological target: T1, Androgen receptor (AR) (Homo sapiens, UniProt P10275)
T1 construct: endogenous in cells; host or cells: VCaP
T1 sequence (P10275 1-920): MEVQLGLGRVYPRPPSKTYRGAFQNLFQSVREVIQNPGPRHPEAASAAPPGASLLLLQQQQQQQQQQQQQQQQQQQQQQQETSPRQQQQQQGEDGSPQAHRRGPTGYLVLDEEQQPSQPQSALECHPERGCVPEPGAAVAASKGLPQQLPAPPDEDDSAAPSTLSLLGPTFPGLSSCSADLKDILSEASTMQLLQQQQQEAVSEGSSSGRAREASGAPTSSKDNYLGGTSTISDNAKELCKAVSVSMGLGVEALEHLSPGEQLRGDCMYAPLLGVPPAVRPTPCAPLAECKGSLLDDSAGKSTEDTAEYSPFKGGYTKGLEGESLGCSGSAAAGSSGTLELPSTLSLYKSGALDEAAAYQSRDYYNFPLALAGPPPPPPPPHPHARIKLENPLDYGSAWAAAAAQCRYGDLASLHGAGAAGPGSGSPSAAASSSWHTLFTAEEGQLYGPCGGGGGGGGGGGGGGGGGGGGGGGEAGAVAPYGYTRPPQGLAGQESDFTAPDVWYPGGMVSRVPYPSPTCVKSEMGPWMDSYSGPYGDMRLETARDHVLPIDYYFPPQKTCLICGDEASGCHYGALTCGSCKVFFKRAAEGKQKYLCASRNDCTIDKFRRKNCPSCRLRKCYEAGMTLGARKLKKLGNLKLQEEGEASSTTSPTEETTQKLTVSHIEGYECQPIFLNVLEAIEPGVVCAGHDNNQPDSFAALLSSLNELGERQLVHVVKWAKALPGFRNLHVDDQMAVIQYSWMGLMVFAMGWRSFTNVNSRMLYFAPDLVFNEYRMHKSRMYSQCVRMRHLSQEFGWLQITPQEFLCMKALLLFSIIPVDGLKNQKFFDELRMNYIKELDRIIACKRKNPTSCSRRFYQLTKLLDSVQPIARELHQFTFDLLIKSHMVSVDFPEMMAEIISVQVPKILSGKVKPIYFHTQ
Assay: Cellular assay of androgen receptor (AR) degradation (VCaP cells, ELISA)
Assay type: cell-based
Conditions: 4 h; androgen receptor, VCaP cells, PROTAC concentration 1 μM, relative to DMSO control; read-out: Target protein degradation range
Description: Protocol of the Cellular Assay of Androgen Receptor (AR) Degradation (VCaP Cells, ELISA).
For detection Cell Signaling PathScan Sandwich Elisa Catalog #12850 Lot 11 was used. VCaP cells were cultured in ATCC DMEM+ATCC FBS and plated 40,000/well 100 μl/well in RPMI P/S with 5% CSS Omega (bovine) serum into a 96 well plate. The cells were grown for a minimum of 3 days, dosed with compounds in 0.1% DMSO (diluted with 5% CSS) and incubated with aspiration for 4 hours. 100 μl of 1× Cell Signaling lysis buffer #9803 (36 ml dH2O+4 ml Cell Signaling lysis buffer) was added. The incubation was placed on cold room shaker for 10 min at speed 8-9. 5 μl to 100 μl of Diluent was transferred to Elisa plate (0.15 ug/ml-0.075 ug/ml) and stored at 4 C overnight on cold room shaker speed 5 (gentle swirl) and then shaken next morning at 37° C. for 30 min. The preparation was washed 4×200 μl with Elisa wash buffer and aspirated with eight-channel aspirator. 100 μl/well of AR detection Ab was added after which the preparation was covered and shaken at 37° C. for 1 hr. 100 ul TMB was added, and the mixture was shaken for 5 min while under observation. When TMB turned light blue, 100 ul of Stop solution was added, and the mixture was shaken and read at 450 nm. Also read at 562 for background subtraction.

Row | SMILES | Dmax at 1 µM [%]
1 | CN[C@@H](C)C(=O)N[C@H](C(=O)N1CCC[C@H]1C(=O)N[C@H]1c2ccccc2C[C@H]1OCCOCCOCCOc1ccc(N2C(=S)N(c3ccc(C#N)c(C(F)(F)F)c3)C(=O)C2(C)C)cc1)C(C)(C)C [Example 36, (2S)—N-[2-(2-[2-[2-(4-[3-[4-cyano-3-(trifluoromethyl)phenyl]-5,5-dimethyl-4-oxo-2-sulfanylideneimidazolidin-1-yl]phenoxy)ethoxy]ethoxy]ethoxy)-2,3-dihydro-1H-inden-1-yl]-1-[(2S)-3,3-dimethyl-2-[(2S)-2-(methylamino)propanamido]-butanoyl]pyrrolidine-2-carboxamide] | 0 to 30
2 | CN[C@@H](C)C(=O)N[C@H](C(=O)N1CCC[C@H]1C(=O)N[C@H]1c2ccccc2C[C@H]1OCCOCCOCCOCCOc1ccc(N2C(=S)N(c3ccc(C#N)c(C(F)(F)F)c3)C(=O)C2(C)C)cc1)C(C)(C)C [Example 37] | 0 to 30
3 | CN[C@@H](C)C(=O)N[C@H](C(=O)N1CCC[C@H]1C(=O)N[C@H]1c2ccccc2C[C@H]1OCCOCCOc1ccc(C(=O)N[C@H]2C(C)(C)[C@H](Oc3ccc(C#N)c(Cl)c3)C2(C)C)cc1)C(C)(C)C [Example 38, 1-[3,3-dimethyl-2-[(2S)-2-(methylamino)propanamido]-butanoyl]-N-[(1S,2R)-2-[2-[2-(4-[[(1r,3r)-3-(3-chloro-4-cyanophenoxy)-2,2,4,4-tetramethylcyclobutyl]carbamoyl]phenoxy)ethoxy]ethoxy]-2,3-dihydro-1H-inden-1-yl]pyrrolidine-2-carboxamide] | 0 to 30

Same assay, conditions: @ 1 μM

Row | SMILES | Androgen receptor (AR) degradation in VCaP cells [%]
4 | CN[C@@H](C)C(=O)N[C@H](C(=O)N1CCC[C@H]1C(=O)N[C@H]1c2ccccc2C[C@H]1OCCOCCOc1ccc(N2C(=S)N(c3ccc(C#N)c(C(F)(F)F)c3)C(=O)C2(C)C)cc1)C(C)(C)C [drawing 254, (2S)—N-[(1S,2R)-2-{2-[2-(4-{3-[4-cyano-3-(trifluoromethyl)phenyl]-5,5-dimethyl-4-oxo-2-sulfanylideneimidazolidin-1-yl}phenoxy)ethoxy]ethoxy}-2,3-dihydro-1H-inden-1-yl]-1-[(2S)-3,3-dimethyl-2-[(2S)-2-(methylamino)propanamido]butanoyl]pyrrolidine-2-carboxamide] | 29
5 | CN[C@@H](C)C(=O)N[C@H](C(=O)N1CCC[C@H]1C(=O)N[C@H]1c2ccccc2C[C@H]1OCCOCCOCCOc1ccc(N2C(=S)N(c3ccc(C#N)c(C(F)(F)F)c3)C(=O)C2(C)C)cc1)C(C)(C)C [drawing 255, (2S)—N-[(1S,2R)-2-(2-{2-[2-(4-{3-[4-cyano-3-(trifluoromethyl)phenyl]-5,5-dimethyl-4-oxo-2-sulfanylideneimidazolidin-1-yl}phenoxy)ethoxy]ethoxy}ethoxy)-2,3-dihydro-1H-inden-1-yl]-1-[(2 S)-3,3-dimethyl-2-[(2S)-2-(methylamino)propanamido]butanoyl]pyrrolidine-2-carboxamide] | 9
6 | CN[C@@H](C)C(=O)N[C@H](C(=O)N1CCC[C@H]1C(=O)N[C@H]1c2ccccc2C[C@H]1OCCOCCOCCOCCOc1ccc(N2C(=S)N(c3ccc(C#N)c(C(F)(F)F)c3)C(=O)C2(C)C)cc1)C(C)(C)C [drawing 256, (2S)—N-[(1S,2R)-2-{[1-(4-{3-[4-cyano-3-(trifluoromethyl)phenyl]-5,5-dimethyl-4-oxo-2-sulfanylideneimidazolidin-1-yl}phenyl)-1,4,7,10-tetraoxadodecan-12-yl]oxy}-2,3-dihydro-1H-inden-1-yl]-1-[(2S)-3,3-dimethyl-2-[(2S)-2-(methylamino)propanamido]butanoyl]pyrrolidine-2-carboxamide] | 9
